US7655632B2, “Pyrazole derivative, medicinal composition containing the same, medicinal use thereof, and intermediate for production thereof” (Kissei Pharmaceutical Co., Ltd., priority 2002, dated 2010)

Experiments:
human SGLT1 = target: T1, human SGLT1 (Homo sapiens, UniProt P13866); assay: Assay for inhibitory effects on human SGLT1 activity (uptake of methyl-α-D-glucopyranoside in CS1-5-11D cells); assay type: cell-based; conditions: CHO-K1 cells stably expressing human SGLT1 (CS1-5-11D); 1 mM α-MG uptake, 37° C., 1 hour
T1 construct: expressed in transfected cells
T1 sequence (P13866 1-664): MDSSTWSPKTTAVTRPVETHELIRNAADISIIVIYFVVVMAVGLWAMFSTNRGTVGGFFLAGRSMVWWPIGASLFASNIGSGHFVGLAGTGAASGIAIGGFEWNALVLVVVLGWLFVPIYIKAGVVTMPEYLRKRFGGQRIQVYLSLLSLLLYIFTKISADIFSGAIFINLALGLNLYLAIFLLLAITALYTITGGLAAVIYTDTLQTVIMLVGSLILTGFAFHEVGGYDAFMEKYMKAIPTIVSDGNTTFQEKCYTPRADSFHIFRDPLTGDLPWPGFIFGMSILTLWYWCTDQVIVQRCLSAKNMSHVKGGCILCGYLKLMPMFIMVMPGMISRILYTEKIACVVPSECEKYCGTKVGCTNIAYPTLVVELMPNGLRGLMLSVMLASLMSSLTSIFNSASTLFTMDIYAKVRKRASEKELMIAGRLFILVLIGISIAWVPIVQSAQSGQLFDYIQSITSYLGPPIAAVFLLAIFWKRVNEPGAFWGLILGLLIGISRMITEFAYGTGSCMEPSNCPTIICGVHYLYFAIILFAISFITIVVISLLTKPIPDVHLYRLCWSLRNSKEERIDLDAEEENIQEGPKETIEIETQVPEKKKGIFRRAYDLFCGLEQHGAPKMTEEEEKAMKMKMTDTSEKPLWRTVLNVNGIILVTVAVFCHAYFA
Method: Assay for Inhibitory Effects on Human SGLT1 Activity
1) Cloning and Construction of the Vector Expressing Human SGLT1
The cDNA library was prepared for PCR amplification by reverse transcription from total RNA deprived from human small intestine (Ori gene) using oligo-dT as a primer. Using this cDNA library as a template, the DNA fragment coding 1 to 2005 bp of human SGLT1 (ACCESSION: M24847), which was reported by Hediger et al., was amplified by PCR method and inserted into the multi-cloning site of pcDNA3.1(−) (Invitrogen). The DNA sequence inserted was perfectly matched to the previously reported sequence.
2) Establishment of Cell Line Stably Expressing Human SGLT1
The expression vector of human SGLT1 was digested by Sca I into a linear DNA. The linear DNA was transfected into CHO-K1 cells by means of lipofection (Effectene Transfection Reagent: QIAGEN). Neomycin resistant cell lines were selected by culture in the medium containing G418 (1 mg/mL, LIFE TECHNOLOGIES), and then the activity against the uptake of methyl-α-D-gluco-pyranoside was measured by the method described below. […] CS1-5-11D cells were cultured in the presence of G418 at 200 μg/mL.
3) Measurement of the Inhibitory Activity Against the Uptake of methyl-α-D-glucopyranoside (α-MG)
CS1-5-11D cells were seeded into a 96-well culture plate at a density of 3×10^4 cells/well and cultured for 2 days, and were used in the uptake assay. A mixture of non-labeled (Sigma) and ^14C-labeled α-MG (Amersham Pharmcia Biotec) was added to the uptake buffer (pH 7.4; containing 140 mM sodium chloride, 2 mM potassium chloride, 1 mM calcium chloride, 1 mM magnesium chloride, 10 mM 2-[4-(2-hydroxyethyl)-1-piperazinyl]ethane sulfonic acid, and 5 mM tris(hydroxymethyl)aminomethane) at the final concentration of 1 mM. A test compound was dissolved in dimethyl sulfoxide, and then appropriately diluted with distilled water. The test compound solution was added to the uptake buffer containing 1 mM α-MG, and designated as a measurement buffer. For the control group, the measurement buffer without any test compound was prepared. For measuring the basal uptake, a basal uptake measurement buffer which contains 140 mM chorine chloride instead of sodium chloride was prepared. After removing the culture medium of CS1-5-11D cells, 180 μL of the pre-treatment buffer (the basal uptake buffer without α-MG) was added to each well and incubated at 37° C. for 10 minutes. After repeating the same treatment, the pre-treatment buffer was removed. To each well was added 75 μL of the measurement buffer or the basal uptake buffer was added and incubated at 37° C. for 1 hour. After removing the measurement buffer, cells were washed twice with 180 μL per well of the washing buffer (the basal uptake buffer containing 10 mM non-labeled α-MG). The cells were solubilized by 75 μL per well of 0.2 mol/L sodium hydroxide. The cell lysates were transferred into PicoPlates (Packard), and then added 150 μL of MicroScint-40 (Packard) and mixed. Radioactivity was measured by means of micro-scintillation counter TopCount (Packard). One hundred % was set to the difference between the uptake in the control group and the basal uptake, and the uptake of methyl α-D-gluco-pyranoside at each drug concentration were calculated.

diabetic rats = assay: Assay for inhibitory effects on blood glucose level increase in rats (liquid meal tolerance test in diabetic rat model); assay type: in vivo; conditions: test compound 1 mg/kg orally, liquid meal 17.25 kcal/kg, mean ± S.E.
Method: Assay for Inhibitory Effects on Blood Glucose Level Increase in rats
1) Preparation of Diabetic Rat Model
Male wistar rats (Japan Charles River), aged 8 weeks old, were injected nicotinamide (230 mg/kg) intraperitoneally. Fifteen minutes after injection, they were injected streptozotocin (85 mg/kg) intravenously from tail vain under anesthesia with ether. After a week, rats were fasted overnight and then glucose tolerance test (2 g/kg) was done.
2) Liquid Meal Tolerance Test
After overnight fasted, the diabetic rats were orally administered a test compound (1 mg/kg), which was dissolved in distilled water, in the drug-treating group, or distilled water alone in a control group. Immediately after the compound administration, 17.25 kcal/kg of liquid meal (No. 038, Control diet, assorted with dextrin and maltose; Oriental Yeast Co., Ltd.) was loaded orally. The blood was collected from tail artery immediately before and after administration with the time course, and treated with heparin immediately. The blood was centrifuged, and the plasma was collected to quantify the plasma glucose concentration by glucose oxidase method. The values in the table are presented as the mean ±S.E.

In the case of `CC(C)c1[nH]nc(O[C@@H]2O[C@H](CO)[C@H](O)[C@H](O)[C@H]2O)c1Cc1ccc(CCCC(=O)NC(C)(C)C(=O)N2CCN(C)CC2)cc1` [Example 61, 3-(β-D-Galactopyranosyloxy)-5-isopropyl-4-{[4-(3-{1-[(4-methylpiperazin-1-yl)carbonyl]-1-(methyl)ethylcarbamoyl}-propyl)phenyl]methyl}-1H-pyrazole], the IC50 (human SGLT1) is reported as 18 nM, the “Plasma glucose concentration 0.5 h” value (diabetic rats; 0.5 hour after drug administration) is reported as 136 ± 6 mg/dL and the “Plasma glucose concentration 1 h” value (diabetic rats; 1 hour after drug administration) is reported as 172 ± 37 mg/dL. The “Plasma glucose concentration 0 h” value (diabetic rats; pretreatment (0 h)) was 116 ± 6 mg/dL.
